# Assay results as given in patent US20040219220A1, “Therapeutic agents” (priority 2001, published 2004).
# Tests used:
# [1] = Extruder barrel temperature profile: ibuprofen content and degradation products after melt extrusion (Example 24); type: physicochemical; details: up to a maximum extruder setting of 140 C
# Description: The method set out in Example 1 was used. The extruder screw speed was set to a constant 600 rpm. The powder feed rate was also set to a constant value. to give a constant feed rate of powder into the extruder. The product of each trial was analysed to determine the level of the two major ibuprofen degradation products: 2-(4-isobutyrylphenyl) propionic acid (BTS 47711) and 4-isobutylacetophenone (BTS 40655).
# [2] = Extruder temperature/throughput matrix: ibuprofen content and degradation products after melt extrusion (Example 25); type: physicochemical; details: 95 C to 130 C, 102 kg/hour to 216 kg/hour
# Description: Further trials using the method of Example 1 but under process conditions as shown in Table 3 were conducted to determine the maximum output from the extruder by varying barrel temperature and powder feed rates, as shown in Table IIA.10.
# Once the required extruder barrel temperature had been reached, the extruder was started and allowed to run for 15 minutes in order to equilibrate prior to sample collection.
# Samples were collected for analysis to determine the level of degradation products formed.
compound,measurement,setting,value
CC(C)Cc1ccc(C(C)C(=O)O)cc1 (racemic) [ibuprofen],ibuprofen degradation as a result of the melt extrusion process,[1],no evidence of ibuprofen degradation
same,degradation of ibuprofen over extruder barrel temperatures and throughputs,[2],no evidence of degradation
